Data published in patent publication US12116358B2, “Substituted indoles and methods of use thereof” (EPIZYME, INC., priority 2018, dated 2024).
Where two headings read alike, the source gives them in different places.

Tests used:
SETD2(1434-1711) = molecular target: T1, SETD2(1434-1711) (Homo sapiens, UniProt Q9BYW2); experiment: SETD2 (1434-1711) assay; type: biochemical
T1 construct: SETD2 (1434-1711) Assay; catalogue N/A
T1 sequence (Q9BYW2 1434-1711): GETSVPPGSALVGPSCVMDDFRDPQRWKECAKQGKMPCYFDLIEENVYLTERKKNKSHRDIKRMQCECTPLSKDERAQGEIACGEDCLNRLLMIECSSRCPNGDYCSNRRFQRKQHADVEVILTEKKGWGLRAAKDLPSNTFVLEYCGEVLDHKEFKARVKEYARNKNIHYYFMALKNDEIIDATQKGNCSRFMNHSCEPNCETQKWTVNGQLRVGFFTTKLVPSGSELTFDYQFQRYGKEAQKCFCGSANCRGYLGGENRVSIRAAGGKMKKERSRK

H3K36me3 in A549 cells = experiment: In-Cell Western (ICW) assay of SETD2 inhibitors (A549 assay); type: cell-based, human
Summary of the method: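 H3K36me3 In-Cell Western: cells exposed to compound for 3 days at 4,000 cells/well, 37° C. DRAQ5 (1:1000) marked cell number, with 700/800-channel Licor read-out.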

[1] = Homo sapiens, A549 cells, read-out: SETD2 A549
[2] = A549 cells, read-out: SETD2 A549

Structure (SMILES) | IC50 (SETD2(1434-1711); read-out: SETD2 (1434-1711)) | IC50 (H3K36me3 in A549 cells; [1]) | IC50 (H3K36me3 in A549 cells; [2]) | IC50 (SETD2(1434-1711)) | IC50 (H3K36me3 in A549 cells; Homo sapiens, A549, read-out: SETD2 A549)
Cc1ccc(F)c2cc(C(=O)Nc3cc(Cl)cc(N4CCC(CCCN5CCOCC5)CC4)c3)[nH]c12 [compound 188] | 0.02 µM | 0.4 µM | – | – | –
Cc1ccc(F)c2cc(C(=O)Nc3cccc(N4CCC5(CCNCC5)C4)c3)[nH]c12 [compound 189] | 0.006 µM | 0.4 µM | – | – | –
Cc1ccc(F)c2cc(C(=O)Nc3cccc(N4CCN(C)C4=O)c3)[nH]c12 [compound 191] | 0.03 µM | 0.4 µM | – | – | –
Cc1ccc(F)c2cc(C(=O)Nc3cccc(N4CCC(N)CC4)c3)[nH]c12 [compound 192] | 0.03 µM | 0.4 µM | – | – | –
CC(=O)N1CCN(c2cccc(NC(=O)c3cc4c(F)ccc(C)c4[nH]3)c2)CC1CC(C)C (stereo not drawn) [compound 193] | 0.1 µM | 0.4 µM | – | – | –
Cc1ccc(F)c2cc(C(=O)Nc3cccc(C4(O)CCC(N(C)C)CC4)c3)[nH]c12 (stereo not drawn) [compound 195] | 0.04 µM | 0.4 µM | – | – | –
Cc1ccc(F)c2cc(C(=O)Nc3cccc(-c4ccno4)c3)[nH]c12 [compound 196] | 0.1 µM | 0.4 µM | – | – | –
Cc1ccc(F)c2cc(C(=O)Nc3cccc(-c4cncn4C)c3)[nH]c12 [compound 197] | 0.1 µM | 0.4 µM | – | – | –
COC1CCN(c2cccc(NC(=O)c3cc4c(F)ccc(C)c4[nH]3)c2)CC1 [compound 198] | 0.07 µM | – | 0.4 µM | – | –
Cc1ccc(F)c2cc(C(=O)Nc3cccc(N4CCN(CC5CC5)CC4)c3)[nH]c12 [compound 199] | 0.05 µM | – | 0.4 µM | – | –
Cc1ccc(F)c2cc(C(=O)Nc3cccc(N4CCNC(=O)CC4)c3)[nH]c12 [compound 200] | 0.05 µM | – | 0.4 µM | – | –
Cc1ccc(F)c2cc(C(=O)Nc3cccc(N4CCN(C(C)C)C(=O)C4)c3)[nH]c12 [compound 201] | 0.09 µM | – | 0.4 µM | – | –
Cc1ccc(F)c2cc(C(=O)Nc3cccc(N4CC[C@@H](N(C)C)[C@@H](C)C4)c3)[nH]c12 [compound 202] | 0.02 µM | – | 0.4 µM | – | –
CCNCC1CN(c2cccc(NC(=O)c3cc4c(F)ccc(C)c4[nH]3)c2)CCO1 (stereo not drawn) [compound 203] | 0.01 µM | – | 0.4 µM | – | –
Cc1ccc(F)c2cc(C(=O)Nc3cccc(N4CCN(CCO)CC4)c3)[nH]c12 [compound 204] | – | – | – | 0.08 µM | 0.4 µM
Cc1ccc(F)c2cc(C(=O)Nc3cccc(N4CCN(C(C)C)C(C)C4)c3)[nH]c12 (stereo not drawn) [compound 205] | 0.03 µM | – | 0.4 µM | – | –
Cc1ccc(F)c2cc(C(=O)Nc3cccc(N4CCC5(CCN(CC(F)F)C5)CC4)c3)[nH]c12 [compound 206] | 0.09 µM | – | 0.4 µM | – | –
Cc1ccc(F)c2cc(C(=O)Nc3cccc(N4CCN(C5CCOCC5)CC4)c3)[nH]c12 [compound 207] | 0.1 µM | – | 0.4 µM | – | –
Cc1ccc(F)c2cc(C(=O)Nc3cccc(N4CCN(C(=O)CN(C)C)CC4)c3)[nH]c12 [compound 208] | 0.06 µM | – | 0.4 µM | – | –
Cc1ccc(F)c2cc(C(=O)Nc3cccc(N4CCOCC4=O)c3)[nH]c12 [compound 209] | 0.2 µM | 0.4 µM | – | – | –
Cc1ccc(F)c2cc(C(=O)Nc3cccc(N4CCC(NCCO)CC4)c3)[nH]c12 [compound 210] | 0.03 µM | – | 0.4 µM | – | –
Cc1ccc(F)c2cc(C(=O)Nc3cccc(N4CCC5(CCCN5C)CC4)c3)[nH]c12 [compound 212] | 0.02 µM | – | 0.4 µM | – | –
CC(=O)N1[C@H](C)CN(c2cccc(NC(=O)c3cc4c(F)ccc(C)c4[nH]3)c2)C[C@H]1C [compound 214] | 0.1 µM | – | 0.5 µM | – | –
Cc1ccc(F)c2cc(C(=O)Nc3cccc(-c4cc5cnccn5c4)c3)[nH]c12 [compound 215] | 0.07 µM | – | 0.5 µM | – | –

Structure (SMILES) | IC50 (SETD2(1434-1711); read-out: SETD2 (1434-1711)) | IC50 (H3K36me3 in A549 cells; [1]) | IC50 (H3K36me3 in A549 cells; [2]) | IC50 (SETD2(1434-1711)) | IC50 (H3K36me3 in A549 cells; Homo sapiens, A549, read-out: SETD2 A549)
Cc1ccc(F)c2cc(C(=O)Nc3cccc(N4CCOCC4C)c3)[nH]c12 (stereo not drawn) [compound 216] | 0.1 µM | – | 0.5 µM | – | –
Cc1ccc(F)c2cc(C(=O)Nc3cccc([C@@H]4CC[C@@H](N(C)C)C4)c3)[nH]c12 [compound 217] | 0.01 µM | – | 0.5 µM | – | –
Cc1ccc(F)c2cc(C(=O)Nc3cccc(N4CC5CC(C4)O5)c3)[nH]c12 [compound 218] | 0.07 µM | – | 0.5 µM | – | –
Cc1ccc(F)c2cc(C(=O)Nc3cccc(-c4cnn(CCO)c4)c3)[nH]c12 [compound 219] | 0.06 µM | – | 0.5 µM | – | –
Cc1ccc(F)c2cc(C(=O)Nc3cccc(N4CCN5CCCC5C4)c3)[nH]c12 (stereo not drawn) [compound 220] | 0.04 µM | – | 0.5 µM | – | –
Cc1ccc(F)c2cc(C(=O)Nc3cccc(N4CCC(C)(N(C)C)CC4)c3)[nH]c12 [compound 222] | 0.02 µM | – | 0.5 µM | – | –
COCCN1CCN(c2cccc(NC(=O)c3cc4c(F)ccc(C)c4[nH]3)c2)CC1 [compound 223] | 0.09 µM | – | 0.5 µM | – | –
Cc1ccc(F)c2cc(C(=O)Nc3cccc(C4COC4)c3)[nH]c12 [compound 224] | 0.2 µM | – | 0.5 µM | – | –
CCCNC1CCN(c2cccc(NC(=O)c3cc4c(F)ccc(C)c4[nH]3)c2)CC1 [compound 225] | 0.03 µM | – | 0.5 µM | – | –
Cc1ccc(F)c2cc(C(=O)Nc3cccc(C4CCN(C(=O)CN(C)C)C4)c3)[nH]c12 (stereo not drawn) [compound 226] | 0.06 µM | – | 0.5 µM | – | –
Cc1ccc(F)c2cc(C(=O)Nc3cccc(N4CCC(N(CCO)CCO)CC4)c3)[nH]c12 [compound 227] | 0.03 µM | – | 0.5 µM | – | –
Cc1ccc(F)c2cc(C(=O)Nc3cccc(-c4ccc(Cn5ccnc5)cc4)c3)[nH]c12 [compound 228] | 0.08 µM | – | 0.5 µM | – | –
Cc1ccc(F)c2cc(C(=O)Nc3cccc(N4CCN(C)C(C(F)(F)F)C4)c3)[nH]c12 (stereo not drawn) [compound 229] | 0.1 µM | – | 0.5 µM | – | –
Cc1ccc(F)c2cc(C(=O)Nc3cc(F)cc(C4CCN(C5CCN(C)C5=O)C4)c3)[nH]c12 (stereo not drawn) [compound 230] | 0.04 µM | – | 0.5 µM | – | –
Cc1ccc(F)c2cc(C(=O)Nc3cccc(-c4ccc(OCCO)cc4)c3)[nH]c12 [compound 231] | 0.1 µM | – | 0.5 µM | – | –
Cc1ccc(F)c2cc(C(=O)Nc3cc(N4CCN(C)CC4)n4cncc4c3)[nH]c12 [compound 232] | 0.06 µM | 0.5 µM | – | – | –
Cc1ccc(F)c2cc(C(=O)Nc3cccc(N4CCn5ccnc5C4)c3)[nH]c12 [compound 233] | 0.05 µM | – | 0.5 µM | – | –
Cc1ccc(F)c2cc(C(=O)Nc3cccc(-c4cccn5nccc45)c3)[nH]c12 [compound 235] | 0.1 µM | 0.5 µM | – | – | –
Cc1ccc(F)c2cc(C(=O)Nc3cccc(N4CCN(C5CC5)CC4)c3)[nH]c12 [compound 236] | 0.2 µM | – | 0.6 µM | – | –
Cc1ccc(F)c2cc(C(=O)Nc3cccc(-c4nncn4C)c3)[nH]c12 [compound 237] | 0.1 µM | – | 0.6 µM | – | –
Cc1ccc(F)c2cc(C(=O)Nc3cccc4ncccc34)[nH]c12 [compound 238] | 0.2 µM | – | 0.6 µM | – | –
Cc1ccc(F)c2cc(C(=O)Nc3cccc(-c4ccnn4C)c3)[nH]c12 [compound 239] | 0.2 µM | – | 0.6 µM | – | –
Cc1ccc(F)c2cc(C(=O)Nc3cccc(N4CCC(OCCN)CC4)c3)[nH]c12 [compound 240] | 0.02 µM | – | 0.6 µM | – | –
Cc1ccc(F)c2cc(C(=O)Nc3cccc(N4CCC5(CCNC5)CC4)c3)[nH]c12 [compound 241] | 0.01 µM | – | 0.6 µM | – | –
